ChEMBL document CHEMBL1201862, “PubChem BioAssay data set” (2004)
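1) Cells in 96-well plates. 2) Compound, 48 h, 5 concentrations. 3) Linear interpolation between surrounding doses. 4) Unreached endpoint = highest concentration. Here, GI50 denotes the concentration required for 50% inhibition of growth.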 The source made the active and inactive calls. No stated cut-off is given here; in the data, active = GI50 up to about 1.1 µM and inactive = higher.

Key:
Test in all cases: NCI tumour cell line growth inhibition, 48 h
COLO 205 = test system: COLO 205
UO-31 = test system: UO-31
KM12 = test system: KM12
ACHN = test system: ACHN
U-251 = test system: U-251
OVCAR-4 = test system: OVCAR-4
MOLT-4 = test system: MOLT-4
LXFL 529 = test system: LXFL 529
EKVX = test system: EKVX
TK-10 = test system: TK-10
CCRF-CEM = test system: CCRF-CEM
HCT-15 = test system: HCT-15
SNB-19 = test system: SNB-19
SNB-78 = test system: SNB-78
SR = test system: SR
HCT-116 = test system: HCT-116
BT-549 = test system: BT-549
NCI/ADR-RES = test system: NCI/ADR-RES
DU-145 = test system: DU-145
Hs-578T = test system: Hs-578T

Structure (SMILES)	GI50 (COLO 205)	GI50 (UO-31)	GI50 (KM12)	GI50 (ACHN)	GI50 (U-251)	GI50 (OVCAR-4)	GI50 (MOLT-4)	GI50 (LXFL 529)	GI50 (EKVX)	GI50 (TK-10)	GI50 (CCRF-CEM)	GI50 (HCT-15) [µM]	GI50 (SNB-19)	GI50 (SNB-78)	GI50 (SR)	GI50 (HCT-116)	GI50 (BT-549)	GI50 (NCI/ADR-RES)	GI50 (DU-145)	GI50 (Hs-578T)
CCOC(=O)/C(O)=C(/C(=O)OC)c1ccc(Cl)cc1	> 100 µM (inactive)	> 100 µM (inactive)	> 100 µM (inactive)	> 100 µM (inactive)	> 100 µM (inactive)	> 100 µM (inactive)	> 100 µM (inactive)	> 100 µM (inactive)	> 100 µM (inactive)	> 100 µM (inactive)	> 100 µM (inactive)	> 100	> 100 µM (inactive)	> 100 µM (inactive)	–	–	–	–	–	–
Nc1ccc(CCN2CCN(c3cccc(C(F)(F)F)c3)CC2)cc1	> 100 µM (inactive)	5.74 µM (inactive)	> 100 µM (inactive)	> 100 µM (inactive)	91.2 µM (inactive)	–	4.38 µM (inactive)	> 100 µM (inactive)	55.5 µM (inactive)	> 100 µM (inactive)	5.07 µM (inactive)	> 100	> 100 µM (inactive)	–	58.5 µM (inactive)	> 100 µM (inactive)	–	–	–	–
C1=CC2SSSC2C1 (stereo not drawn)	> 100 µM (inactive)	> 100 µM (inactive)	> 100 µM (inactive)	> 100 µM (inactive)	> 100 µM (inactive)	> 100 µM (inactive)	> 100 µM (inactive)	> 100 µM (inactive)	> 100 µM (inactive)	> 100 µM (inactive)	> 100 µM (inactive)	> 100	> 100 µM (inactive)	–	> 100 µM (inactive)	> 100 µM (inactive)	–	–	–	–
CCCCC(C(=O)C(=O)Nc1ccc(C)cc1C)C(=O)C(C)C (stereo not drawn)	–	> 100 µM (inactive)	> 100 µM (inactive)	> 100 µM (inactive)	> 100 µM (inactive)	> 100 µM (inactive)	> 100 µM (inactive)	> 100 µM (inactive)	> 100 µM (inactive)	> 100 µM (inactive)	–	> 100	> 100 µM (inactive)	> 100 µM (inactive)	–	> 100 µM (inactive)	–	–	–	–
SC1=NC2(CCCCCC2)NN1c1ccccc1	0.104 µM (active)	0.168 µM (active)	0.291 µM (active)	0.0785 µM (active)	–	2.16 µM (inactive)	0.891 µM (active)	0.0407 µM (active)	36.5 µM (inactive)	> 28.6 µM (inactive)	0.0664 µM (active)	0.168	> 41 µM (inactive)	–	28.8 µM (inactive)	–	> 100 µM (inactive)	> 100 µM (inactive)	0.0708 µM (active)	> 100 µM (inactive)
CC(=O)NC1C(OC2C(CO)OC(OCC3OC(n4ccc(N)nc4=O)C(O)C3O)C(NC(C)=O)C2O)OC(CO)C(O)C1O (stereo not drawn)	> 100 µM (inactive)	> 100 µM (inactive)	> 100 µM (inactive)	99.8 µM (inactive)	> 100 µM (inactive)	> 100 µM (inactive)	> 29.4 µM (inactive)	–	> 100 µM (inactive)	> 100 µM (inactive)	12.1 µM (inactive)	> 100	> 100 µM (inactive)	–	> 100 µM (inactive)	> 100 µM (inactive)	> 100 µM (inactive)	> 100 µM (inactive)	> 100 µM (inactive)	> 100 µM (inactive)
COC(O)C12OC3CO[Si](C(C)C)(C(C)C)O[Si](C(C)C)(C(C)C)OC3C1Oc1nc(=O)ccn12 (stereo not drawn)	12.7 µM (inactive)	15.8 µM (inactive)	5.61 µM (inactive)	14.1 µM (inactive)	> 31.7 µM (inactive)	14.2 µM (inactive)	2.15 µM (inactive)	–	13.6 µM (inactive)	14.3 µM (inactive)	4.5 µM (inactive)	16.3	14.4 µM (inactive)	–	1.23 µM (inactive)	8.61 µM (inactive)	15.5 µM (inactive)	21.6 µM (inactive)	16.3 µM (inactive)	2.67 µM (inactive)
CC12Oc3ccc4ccccc4c3CC1Cc1c(ccc3ccccc13)O2 (stereo not drawn)	> 100 µM (inactive)	> 100 µM (inactive)	> 100 µM (inactive)	> 100 µM (inactive)	50.6 µM (inactive)	26.5 µM (inactive)	–	45.4 µM (inactive)	> 100 µM (inactive)	46.2 µM (inactive)	–	–	45.5 µM (inactive)	–	–	> 100 µM (inactive)	–	–	–	–
Cc1ccc(OCCn2cc(Nc3ccccc3)c(=O)[nH]c2=O)cc1	> 100 µM (inactive)	> 100 µM (inactive)	> 100 µM (inactive)	> 100 µM (inactive)	> 100 µM (inactive)	> 100 µM (inactive)	> 100 µM (inactive)	–	> 100 µM (inactive)	> 100 µM (inactive)	> 100 µM (inactive)	> 100	> 100 µM (inactive)	–	> 100 µM (inactive)	> 100 µM (inactive)	> 100 µM (inactive)	> 100 µM (inactive)	> 100 µM (inactive)	22.1 µM (inactive)
